In US8685970B2, “Quinolines and related analogs as sirtuin modulators” (GlaxoSmithKline, LLC, priority 2008, dated 2014):

Target: T1, SIRT1 (Homo sapiens, UniProt Q96EB6)
T1 sequence (Q96EB6 1-747): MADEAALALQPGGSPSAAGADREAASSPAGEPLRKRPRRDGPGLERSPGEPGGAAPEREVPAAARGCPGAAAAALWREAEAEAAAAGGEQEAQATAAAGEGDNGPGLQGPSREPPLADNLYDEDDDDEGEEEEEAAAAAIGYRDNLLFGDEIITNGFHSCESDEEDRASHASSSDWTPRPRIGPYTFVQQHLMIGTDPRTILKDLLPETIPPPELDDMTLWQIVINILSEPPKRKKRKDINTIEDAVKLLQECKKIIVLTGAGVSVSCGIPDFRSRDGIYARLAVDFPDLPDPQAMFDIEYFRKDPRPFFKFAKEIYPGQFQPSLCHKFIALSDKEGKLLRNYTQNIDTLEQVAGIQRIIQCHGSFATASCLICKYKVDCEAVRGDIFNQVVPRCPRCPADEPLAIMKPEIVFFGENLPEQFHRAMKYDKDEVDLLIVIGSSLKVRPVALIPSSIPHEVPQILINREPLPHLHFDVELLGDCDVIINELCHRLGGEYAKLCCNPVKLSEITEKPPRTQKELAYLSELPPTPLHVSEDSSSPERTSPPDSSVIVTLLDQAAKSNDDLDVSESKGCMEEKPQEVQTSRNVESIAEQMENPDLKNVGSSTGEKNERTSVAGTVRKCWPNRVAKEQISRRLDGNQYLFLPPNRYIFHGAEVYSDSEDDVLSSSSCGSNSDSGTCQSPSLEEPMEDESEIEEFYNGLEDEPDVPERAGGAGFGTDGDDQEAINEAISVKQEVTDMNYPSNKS
Assay: Mass spectrometry based SIRT1 deacetylation assay (activation)
Type: biochemical
Conditions: 10 nM SIRT1, 0.5 μM peptide substrate, 120 μM βNAD+, 25 min at 25° C.
Text: A mass spectrometry based assay was used to identify modulators of SIRT1 activity. The mass spectrometry based assay utilizes a peptide having 20 amino acid residues as follows: Ac-EE-K (biotin)-GQSTSSHSK (Ac)N1eSTEG-K(5TMR)-EE-NH2 (SEQ ID NO: 1) wherein K(Ac) is an acetylated lysine residue and Nle is a norleucine. The peptide is labeled with the fluorophore 5TMR (excitation 540 nm/emission 580 nm) at the C-terminus. The sequence of the peptide substrate is based on p53 with several modifications. In addition, the methionine residue naturally present in the sequence was replaced with the norleucine because the methionine may be susceptible to oxidation during synthesis and purification.
The mass spectrometry assay is conducted as follows: 0.5 μM peptide substrate and 120 μM βNAD^+ is incubated with 10 nM SIRT1 for 25 minutes at 25° C. in a reaction buffer (50 mM Tris-acetate pH 8, 137 mM NaCl, 2.7 mM KCl, 1 mM MgCl2, 5 mM DTT, 0.05% BSA). Test compounds may be added to the reaction as described above. The SirT1 gene is cloned into a T7-promoter containing vector and transformed into BL21(DE3). After the 25 minute incubation with SIRT1, 10 μL of 10% formic acid is added to stop the reaction. Reactions are sealed and frozen for later mass spec analysis. Determination of the mass of the substrate peptide allows for precise determination of the degree of acetylation (i.e. starting material) as compared to deacetylated peptide (product).
A control for inhibition of sirtuin activity is conducted by adding 1 μL of 500 mM nicotinamide as a negative control at the start of the reaction (e.g., permits determination of maximum sirtuin inhibition). A control for activation of sirtuin activity is conducted using 10 nM of sirtuin protein, with 1 μL of DMSO in place of compound, to determine the amount of deacetylation of the substrate at a given timepoint within the linear range of the assay. This timepoint is the same as that used for test compounds and, within the linear range, the endpoint represents a change in velocity.
For the above assay, SIRT1 protein was expressed and purified as follows. The SirT1 gene was cloned into a T7-promoter containing vector and transformed into BL21(DE3). The protein was expressed by induction with 1 mM IPTG as an N-terminal His-tag fusion protein at 18° C. overnight and harvested at 30,000×g. Cells were lysed with lysozyme in lysis buffer (50 mM Tris-HCl, 2 mM Tris[2-carboxyethyl]phosphine (TCEP), 10 μM ZnCl2, 200 mM NaCl) and further treated with sonication for 10 min for complete lysis. The protein was purified over a Ni-NTA column (Amersham) and fractions containing pure protein were pooled, concentrated and run over a sizing column (Sephadex S200 26/60 global). The peak containing soluble protein was collected and run on an Ion-exchange column (MonoQ). Gradient elution (200 mM-500 mM NaCl) yielded pure protein. This protein was concentrated and dialyzed against dialysis buffer (20 mM Tris-HCl, 2 mM TCEP) overnight. The protein was aliquoted and frozen at −80° C. until further use.
Sirtuin modulating compounds that activated SIRT1 were identified using the assay described above and are shown below in Table 1. The EC1.5 values represent the concentration of test compounds that result in 150% activation of SIRT1. The EC1.5 values for the activating compounds are represented by A (EC1.5<1.0 uM), B (EC1.5 1-25 uM), C (EC1.5>25 uM). The percent maximum fold activation is represented by A (Fold activation >200%) or B (Fold Activation <200%). “NT” indicates the compound was not tested in a particular assay.

| SMILES | EC1.5 (concentration of test compound that results in 150% activation of SIRT1) | % Fold Act. (percent maximum fold activation) |
| --- | --- | --- |
| O=C(Nc1cccc2ccc(-c3ccccc3)nc12)c1cccc(N2CCCC2)c1 [Compound 1] | C (EC1.5>25 uM) | – |
| O=C(Nc1cccc2ccc(-c3ccccc3)nc12)c1cscn1 [Compound 2] | B (EC1.5 1-25 uM) | A (Fold activation >200%) |
| O=C(Nc1cccc2ccc(-c3ccccc3)nc12)c1cnccn1 [Compound 3] | A (EC1.5<1.0 uM) | A (Fold activation >200%) |
| O=C(Nc1cccc2ccc(-c3cccc(C(F)(F)F)c3)nc12)c1cscn1 [Compound 5] | A (EC1.5<1.0 uM) | A (Fold activation >200%) |
| O=C(Nc1cccc2ccc(-c3ccccc3)nc12)c1cccc(OC(F)(F)F)c1 [Compound 6] | C (EC1.5>25 uM) | – |
| O=C(Nc1ccccc1)c1cccc2ccc(-c3ccccc3)nc12 [Compound 9] | C (EC1.5>25 uM) | B (Fold Activation <200%) |
| O=C(Nc1ccccc1)c1cccc2ccc(-c3cccc(C(F)(F)F)c3)nc12 [Compound 10] | B (EC1.5 1-25 uM) | A (Fold activation >200%) |
| O=C(Nc1nccs1)c1cccc2ccc(-c3ccccc3)nc12 [Compound 12] | A (EC1.5<1.0 uM) | A (Fold activation >200%) |
| O=C(Nc1cccc2ccc(-c3cccc(OC(F)(F)F)c3)nc12)c1ccccc1 [Compound 19] | C (EC1.5>25 uM) | – |
| O=C(Nc1cccc2ccc(-c3cccc(OC(F)(F)F)c3)nc12)c1cccc(F)c1 [Compound 21] | C (EC1.5>25 uM) | – |

Now from value to molecule:

| EC1.5 (concentration of test compound that results in 150% activation of SIRT1) | % Fold Act. (percent maximum fold activation) | SMILES |
| --- | --- | --- |
| A (EC1.5<1.0 uM) | B (Fold Activation <200%) | O=C(Nc1cccc2ccc(-c3cccc(C(F)(F)F)c3)nc12)c1cnccn1 [Compound 4] |
| B (EC1.5 1-25 uM) | A (Fold activation >200%) | O=C(Nc1cccc2ccc(-c3cccc(OC(F)(F)F)c3)nc12)c1cscn1 [Compound 7] |
| A (EC1.5<1.0 uM) | B (Fold Activation <200%) | O=C(Nc1cccc2ccc(-c3cccc(OC(F)(F)F)c3)nc12)c1cnccn1 [Compound 8] |
| B (EC1.5 1-25 uM) | B (Fold Activation <200%) | O=C(Nc1ccccc1)c1cccc2ccc(-c3cccc(OC(F)(F)F)c3)nc12 [Compound 11] |
| A (EC1.5<1.0 uM) | A (Fold activation >200%) | O=C(Nc1nccs1)c1cccc2ccc(-c3cccc(C(F)(F)F)c3)nc12 [Compound 13] |
| A (EC1.5<1.0 uM) | B (Fold Activation <200%) | O=C(Nc1nccs1)c1cccc2ccc(-c3cccc(OC(F)(F)F)c3)nc12 [Compound 14] |
| A (EC1.5<1.0 uM) | B (Fold Activation <200%) | O=C(Nc1cnccn1)c1cccc2ccc(-c3ccccc3)nc12 [Compound 15] |
| A (EC1.5<1.0 uM) | A (Fold activation >200%) | O=C(Nc1cnccn1)c1cccc2ccc(-c3cccc(C(F)(F)F)c3)nc12 [Compound 16] |
| A (EC1.5<1.0 uM) | A (Fold activation >200%) | O=C(Nc1cnccn1)c1cccc2ccc(-c3cccc(OC(F)(F)F)c3)nc12 [Compound 17] |
| C (EC1.5>25 uM) | – | O=C(Nc1cccc2ccc(-c3cccc(OC(F)(F)F)c3)nc12)c1ccccc1F [Compound 20] |
